Results on 10 compounds are retold here after ChEMBL document CHEMBL1201862, “PubChem BioAssay data set” (2004).

What all share (assay): NCI anticancer screen, dose series, 48 h
The test system of assay [1] is A498.
Assay [2] concerns ACHN.
Assay [3] has as its system HCC 2998.
For assay [4], the system named is HOP-62.
For assay [5], the system named is HT-29.
In assay [6] the test system is K562.
Assay [7] concerns Malme-3M.
The test system of assay [8] is NCI-H226.
Assay [9] deals with OVCAR-4.
In assay [10] the test system is OVCAR-5.
The subject of assay [11] is RPMI-8226.
The subject of assay [12] is RXF 393.
Assay [13] has as its system SK-MEL-28.
Assay [14] deals with SK-MEL-5.
For assay [15], the system named is SW-620.
The test system of assay [16] is UACC-62.
The subject of assay [17] is SR.

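Each compound was tested at five concentrations against cells in 96-well plates for 48 hours. GI50 marks 50% less growth.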 The source made the active and inactive calls. Rule as the data show it: active = GI50 up to about 1.1 µM and inactive = higher.

Consider `CCCCCCCCCCCCCCCC(=O)OCC1OC(n2cc(F)c(=O)[nH]c2=O)C(NC(=O)N(CCCl)N=O)C(O)C1O` (stereo not drawn), for which the GI50 was 4.44 µM (inactive) in assay [1]; 1.64 µM (inactive) in assay [2]; 2.71 µM (inactive) in [3]; 0.354 µM (active) in assay [4]; 4.68 µM (inactive) in assay [5]; 1.76 µM (inactive) in [6]. Further, the GI50 in assay [7] is 4.47 µM (inactive); in assay [8], 10.4 µM (inactive); in [9], 7.96 µM (inactive); in assay [10] it was 13.1 µM (inactive); in [11] it was 3.06 µM (inactive); in assay [12], 2.38 µM (inactive). Further, the GI50 in [13] is 2.37 µM (inactive); in assay [14] it was 3.94 µM (inactive); in assay [15], 1.31 µM (inactive); in [16] it was 0.0103 µM (active).
Regarding `COc1ccc(/C=C2\C(=O)N(C(=O)c3ccc(NC(C)=O)cc3)N=C2C)cc1OC`, the GI50 in assay [2], in assay [3], in [4], in assay [5], in assay [6] and in assay [7] was > 100 µM (inactive) throughout. For the same compound, the GI50 in assay [8], in assay [9], in assay [10], in [11], in assay [13] and in [14] was > 100 µM (inactive) throughout. Besides, the GI50 in [17] and in [15] was > 100 µM (inactive) each time.
In the case of `O=[N+]([O-])c1nccn1COCCBr`, the GI50 in assay [2], in assay [4], in [5], in assay [6], in assay [7] and in [8] was > 100 µM (inactive) in each case. Also, the GI50 in assay [9], in assay [10], in [11], in assay [13], in assay [14] and in assay [17] was > 100 µM (inactive) each time. Besides, the GI50 in assay [15] and in [16] was > 100 µM (inactive) each time.
As for `CCOC(=O)C1(Cc2ccccc2)CCCCCN1` (stereo not drawn), the GI50 in [2] was > 100 µM (inactive); in assay [3], > 100 µM (inactive); in assay [4], > 100 µM (inactive); in assay [5] it was > 100 µM (inactive); in assay [6], > 100 µM (inactive); in [7], 50.1 µM (inactive). The GI50 in [9], in assay [12], in assay [13], in assay [15] and in [16] was > 100 µM (inactive) in each case.
As for `C=CCCCCCCCCC(=O)NS(=O)(=O)c1ccccc1`, the GI50 is > 100 µM (inactive) in [1]; 71 µM (inactive) in [2]; > 100 µM (inactive) in assay [3]; > 100 µM (inactive) in [4]; > 100 µM (inactive) in assay [5]; 54.5 µM (inactive) in assay [6]. In addition, the GI50 was > 100 µM (inactive) in assay [7]; > 100 µM (inactive) in assay [8]; > 100 µM (inactive) in assay [9]; > 100 µM (inactive) in assay [10]; 35.8 µM (inactive) in assay [11]; > 100 µM (inactive) in assay [12]. Also, the GI50 in assay [13] was 99.3 µM (inactive); in [15], > 100 µM (inactive); in assay [16] it was 53.2 µM (inactive).
`COc1ccc(C=O)c([N+](=O)[O-])c1`: the GI50 in [1] is > 100 µM (inactive); in assay [2], 58.6 µM (inactive); in [3], > 10 µM (inactive); in assay [4], 40.7 µM (inactive); in assay [5], 16.9 µM (inactive); in assay [6], 3.71 µM (inactive). Besides, the GI50 is 21.5 µM (inactive) in [7]; 44 µM (inactive) in assay [8]; 76.6 µM (inactive) in assay [9]; 23.1 µM (inactive) in assay [11]; > 100 µM (inactive) in [12]; > 100 µM (inactive) in [13]. Further, the GI50 is 17 µM (inactive) in assay [14], 8.24 µM (inactive) in assay [15] and 52.6 µM (inactive) in [16].
`CCOC(=O)C1S/C(=N/c2ccc(Cl)cc2C)N=C1C` (stereo not drawn): the GI50 in [1] is 37.1 µM (inactive); in assay [2], 19.8 µM (inactive); in [3], 20.7 µM (inactive); in assay [4], 24.8 µM (inactive); in assay [5] it was 16.1 µM (inactive); in assay [6] it was 17.7 µM (inactive). Also, the GI50 was 20.2 µM (inactive) in assay [7]; 24 µM (inactive) in assay [8]; 19.9 µM (inactive) in assay [9]; 18.1 µM (inactive) in assay [10]; 15.3 µM (inactive) in assay [12]; 25.2 µM (inactive) in [13]. The GI50 in [14] was 16.2 µM (inactive); in [15], 22.3 µM (inactive); in assay [16] it was 14.1 µM (inactive).
On to `COc1ccc(C2Oc3c(cc(O)c(OC)c3C)[C@@H]2C)cc1OC` (stereo partly drawn), for which the GI50 in assay [1] was > 100 µM (inactive); in assay [2] it was > 100 µM (inactive); in assay [3], > 100 µM (inactive); in [4] it was > 100 µM (inactive); in [5] it was > 100 µM (inactive); in [6] it was 47.9 µM (inactive). For the same compound, the GI50 is > 100 µM (inactive) in assay [7]; > 100 µM (inactive) in assay [8]; 42.4 µM (inactive) in assay [9]; > 100 µM (inactive) in assay [10]; 4.44 µM (inactive) in assay [11]; 27.7 µM (inactive) in assay [12]. Moreover, the GI50 in [13] was > 100 µM (inactive); in [14], 31.6 µM (inactive); in assay [15] it was 71 µM (inactive); in assay [16], 90.2 µM (inactive).
In the case of `CC1(CO)OC1COCc1ccccc1` (stereo not drawn), the GI50 in [2], in [4], in assay [5], in assay [6], in assay [7] and in assay [8] was > 100 µM (inactive) throughout. Also, the GI50 in assay [10], in assay [11], in assay [12], in assay [17], in [15] and in assay [16] was > 100 µM (inactive) throughout.
With `C/C(=N\NC(=O)C[n+]1ccccc1)c1sc(-c2nc(C)c(/C(C)=N/NC(=O)C[n+]3ccccc3)s2)nc1C`, the GI50 was > 100 µM (inactive) in assay [1]; > 100 µM (inactive) in assay [2]; > 100 µM (inactive) in [3]; > 100 µM (inactive) in [4]; 36.3 µM (inactive) in assay [5]; 41.1 µM (inactive) in assay [6]. In addition, the GI50 in assay [7] was > 100 µM (inactive); in assay [8], > 100 µM (inactive); in assay [10] it was > 100 µM (inactive); in [11], 43.9 µM (inactive); in assay [12], > 100 µM (inactive); in assay [13], > 100 µM (inactive). Moreover, the figures for the GI50 in assay [14], in assay [15] and in [16] were > 100 µM (inactive), > 100 µM (inactive) and 65 µM (inactive), respectively.
